Assay results as given in PubChem BioAssay AID2060883 (Molecular Pharmacology Branch, DTP, NCI, 2025).
Values joined by “and” are separate entries in the source; they are usually repeats but may differ in a detail not shown here. Equal entries are not always repeated.

Test system: 843782-103-R-J1-PDC complex spheroid viability
Assay: Anticancer human tumor 843782-103-R-J1-PDC patient-derived lung adenocarcinoma cell line growth inhibition [RAS]
Details: for viability, T/C: stronger effect = lower value; active = viability on the fitted dose curve at most 10% of control; inactive = the rest
Outline: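 Agents were tested in combination matrices in half-log decrements from a top concentration at or near clinical Cmax (10 microM if undetermined). Targets were multi-cell spheroids of tumour lines plus HUVEC and MSC stromal cells.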

[1] = curve of first compound, second compound 0.000949 µM
[2] = curve of first compound, second compound 0.003 µM
[3] = curve of first compound, second compound 0.00949 µM
[4] = curve of first compound, second compound 0.03 µM
[5] = curve of first compound, second compound 0.0949 µM
[6] = curve of first compound, second compound 0.3 µM
[7] = second compound 0.000949 µM, first compound 0.0316 µM
[8] = second compound 0.000949 µM, first compound 0.1 µM
[9] = second compound 0.000949 µM, first compound 0.316 µM
[10] = second compound 0.000949 µM, first compound 1 µM
[11] = second compound 0.003 µM, first compound 0.0316 µM
[12] = second compound 0.003 µM, first compound 0.1 µM
[13] = second compound 0.003 µM, first compound 0.316 µM
[14] = second compound 0.003 µM, first compound 1 µM
[15] = second compound 0.00949 µM, first compound 0.0316 µM
[16] = second compound 0.00949 µM, first compound 0.1 µM
[17] = second compound 0.00949 µM, first compound 0.316 µM
[18] = second compound 0.00949 µM, first compound 1 µM
[19] = second compound 0.03 µM, first compound 0.0316 µM
[20] = second compound 0.03 µM, first compound 0.1 µM
[21] = second compound 0.03 µM, first compound 0.316 µM
[22] = second compound 0.03 µM, first compound 1 µM
[23] = second compound 0.0949 µM, first compound 0.0316 µM
[24] = second compound 0.0949 µM, first compound 0.1 µM
[25] = second compound 0.0949 µM, first compound 0.316 µM
[26] = second compound 0.0949 µM, first compound 1 µM
[27] = second compound 0.3 µM, first compound 0.0316 µM
[28] = second compound 0.3 µM, first compound 0.1 µM
[29] = second compound 0.3 µM, first compound 0.316 µM
[30] = second compound 0.3 µM, first compound 1 µM
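Also: viability read after seven days of compound exposure.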

CCc1c2c(nc3ccc(O)cc13)-c1cc3c(c(=O)n1C2)COC(=O)[C@]3(O)CC + C#Cc1c(F)ccc2cc(O)cc(-c3ncc4c(N5CC6CCC(C5)N6)nc(OCC56CCCN5CC(F)C6)nc4c3F)c12
1.91 nM: IC50 (curve of first compound, second compound 0.0316 µM) | IC50 (curve of first compound, second compound 1 µM)
active: viability, T/C (second compound 0.0316 µM, first compound 0.00949 µM) 8.79% | viability, T/C (second compound 0.0316 µM, first compound 0.03 µM) 2.87% | viability, T/C (second compound 0.0316 µM, first compound 0.0949 µM) 1.58% | viability, T/C (second compound 0.0316 µM, first compound 0.3 µM) 0.53% | viability, T/C (second compound 0.1 µM, first compound 0.00949 µM) 8.39% | viability, T/C (second compound 0.1 µM, first compound 0.03 µM) 4.21% | viability, T/C (second compound 0.1 µM, first compound 0.0949 µM) 1.08% | viability, T/C (second compound 0.1 µM, first compound 0.3 µM) 0.68% | viability, T/C (second compound 0.316 µM, first compound 0.00949 µM) 8.99% | viability, T/C (second compound 0.316 µM, first compound 0.03 µM) 3.62% | viability, T/C (second compound 0.316 µM, first compound 0.0949 µM) 1.15% | viability, T/C (second compound 0.316 µM, first compound 0.3 µM) 0.74% | viability, T/C (second compound 1 µM, first compound 0.00949 µM) 7.99% | viability, T/C (second compound 1 µM, first compound 0.03 µM) 3.68% | viability, T/C (second compound 1 µM, first compound 0.0949 µM) 1.44% | viability, T/C (second compound 1 µM, first compound 0.3 µM) 0.87% | viability, T/C (second compound 3.16 µM, first compound 0.00949 µM) 10.4% | viability, T/C (second compound 3.16 µM, first compound 0.03 µM) 4.24% | viability, T/C (second compound 3.16 µM, first compound 0.0949 µM) 1.56% | viability, T/C (second compound 3.16 µM, first compound 0.3 µM) 0.77% | viability, T/C (second compound 10 µM, first compound 0.00949 µM) 9.81% | viability, T/C (second compound 10 µM, first compound 0.03 µM) 3.11% | viability, T/C (second compound 10 µM, first compound 0.0949 µM) 1.08% | viability, T/C (second compound 10 µM, first compound 0.3 µM) 0.39%
< 0.949 nM: IC50 (curve of first compound, second compound 10 µM)
2 nM: IC50 (curve of first compound, second compound 0.1 µM)
1.62 nM: IC50 (curve of first compound, second compound 3.16 µM)
inactive: viability, T/C (second compound 0.0316 µM, first compound 0.000949 µM) 103% | viability, T/C (second compound 0.0316 µM, first compound 0.003 µM) 15.3% | viability, T/C (second compound 0.1 µM, first compound 0.000949 µM) 104% | viability, T/C (second compound 0.1 µM, first compound 0.003 µM) 19.6% | viability, T/C (second compound 0.316 µM, first compound 0.000949 µM) 96.8% | viability, T/C (second compound 0.316 µM, first compound 0.003 µM) 20.8% | viability, T/C (second compound 1 µM, first compound 0.000949 µM) 85.5% | viability, T/C (second compound 1 µM, first compound 0.003 µM) 26.8% | viability, T/C (second compound 3.16 µM, first compound 0.000949 µM) 73.4% | viability, T/C (second compound 3.16 µM, first compound 0.003 µM) 21.8% | viability, T/C (second compound 10 µM, first compound 0.000949 µM) 42.2% | viability, T/C (second compound 10 µM, first compound 0.003 µM) 12.1%
1.95 nM: IC50 (curve of first compound, second compound 0.316 µM)

O=C(c1ccc(F)c(F)c1Nc1ccc(I)cc1F)N1CC(O)([C@@H]2CCCCN2)C1 + CCn1c(-c2cc(N3CCN(C)CC3)cnc2C(C)OC)c2c3cc(ccc31)-c1csc(n1)CC(NC(=O)C1CC1C)C(=O)N1CCCC(N1)C(=O)OCC(C)(C)C2
inactive: viability, T/C (second compound 0.000949 µM, first compound 0.00316 µM) 68.7% | viability, T/C (second compound 0.000949 µM, first compound 0.01 µM) 63.4% | viability, T/C [7] 36.7% | viability, T/C [8] 26.3% | viability, T/C [9] 19% | viability, T/C [10] 11% | viability, T/C (second compound 0.003 µM, first compound 0.00316 µM) 53% | viability, T/C (second compound 0.003 µM, first compound 0.01 µM) 37.5% | viability, T/C [11] 31.5% | viability, T/C [12] 17.7% | viability, T/C [13] 11.7% | viability, T/C (second compound 0.00949 µM, first compound 0.00316 µM) 30% | viability, T/C (second compound 0.00949 µM, first compound 0.01 µM) 19.3% | viability, T/C [15] 16.9% | viability, T/C [16] 10.9% | viability, T/C (second compound 0.03 µM, first compound 0.00316 µM) 14.8% | viability, T/C (second compound 0.03 µM, first compound 0.01 µM) 15.3% | viability, T/C [19] 10.1% | viability, T/C (second compound 0.0949 µM, first compound 0.00316 µM) 13% | viability, T/C (second compound 0.0949 µM, first compound 0.01 µM) 10.8% | viability, T/C (second compound 0.3 µM, first compound 0.00316 µM) 10.4%
4.01 nM: IC50 [2]
active: viability, T/C [14] 10.3% | viability, T/C [17] 9.55% | viability, T/C [18] 7.11% | viability, T/C [20] 8.81% | viability, T/C [21] 8.18% | viability, T/C [22] 9.08% | viability, T/C [23] 9.11% | viability, T/C [24] 7.24% | viability, T/C [25] 7.61% | viability, T/C [26] 8.33% | viability, T/C (second compound 0.3 µM, first compound 0.01 µM) 8.56% | viability, T/C [27] 7.38% | viability, T/C [28] 6.95% | viability, T/C [29] 8.88% | viability, T/C [30] 5.35%
18 nM: IC50 [1]
< 3.16 nM: IC50 [3] | IC50 [4] | IC50 [5] | IC50 [6]

C[C@@H](NC(=O)c1ncnc(N)c1Cl)c1ncc(C(=O)Nc2cc(C(F)(F)F)c(Cl)cn2)s1 + CCn1c(-c2cc(N3CCN(C)CC3)cnc2C(C)OC)c2c3cc(ccc31)-c1csc(n1)CC(NC(=O)C1CC1C)C(=O)N1CCCC(N1)C(=O)OCC(C)(C)C2
< 31.6 nM: IC50 [3] | IC50 [4] | IC50 [5] | IC50 [6]
inactive: viability, T/C [7] 84.4% | viability, T/C [8] 78.1% | viability, T/C [9] 85.8% | viability, T/C [10] 79.6% | viability, T/C (second compound 0.000949 µM, first compound 3.16 µM) 89.8% | viability, T/C (second compound 0.000949 µM, first compound 10 µM) 84.3% | viability, T/C [11] 68.9% | viability, T/C [12] 70% | viability, T/C [13] 67.5% | viability, T/C [14] 68.6% | viability, T/C (second compound 0.003 µM, first compound 3.16 µM) 74.6% | viability, T/C (second compound 0.003 µM, first compound 10 µM) 64.7% | viability, T/C [15] 41% | viability, T/C [16] 51.6% | viability, T/C [17] 48.4% | viability, T/C [18] 44% | viability, T/C (second compound 0.00949 µM, first compound 3.16 µM) 53.6% | viability, T/C (second compound 0.00949 µM, first compound 10 µM) 48.2% | viability, T/C [19] 22.9% | viability, T/C [20] 26.2% | viability, T/C [21] 28.8% | viability, T/C [22] 32.5% | viability, T/C (second compound 0.03 µM, first compound 3.16 µM) 34.7% | viability, T/C (second compound 0.03 µM, first compound 10 µM) 33.4% | viability, T/C [23] 19.8% | viability, T/C [24] 18.8% | viability, T/C [25] 19.8% | viability, T/C [26] 21.6% | viability, T/C (second compound 0.0949 µM, first compound 3.16 µM) 24.3% | viability, T/C (second compound 0.0949 µM, first compound 10 µM) 23.7% | viability, T/C [27] 15.4% | viability, T/C [28] 15.6% | viability, T/C [29] 19.1% | viability, T/C [30] 17.5% | viability, T/C (second compound 0.3 µM, first compound 3.16 µM) 19.6% | viability, T/C (second compound 0.3 µM, first compound 10 µM) 18.6%
> 10000 nM: IC50 [1] | IC50 [2]

C[C@@H](NC(=O)c1ncnc(N)c1Cl)c1ncc(C(=O)Nc2cc(C(F)(F)F)c(Cl)cn2)s1
inactive: viability, T/C (compound 0.0316 µM) 103% and 104% and 109% (2×) | viability, T/C (compound 0.1 µM) 105% [middle of 4 runs] | viability, T/C (compound 0.316 µM) 99.7% [middle of 4 runs] | viability, T/C (compound 1 µM) 104% (2×) and 113% and 98% | viability, T/C (compound 3.16 µM) 109% [middle of 4 runs] | viability, T/C (compound 10 µM) 103% [middle of 4 runs]
> 10000 nM: IC50 (curve of compound)

CC1(O)CCCC1n1c(=O)c(C(F)F)cc2cnc(NC3CCN(S(C)(=O)=O)CC3)nc21 (centres undefined)
307 nM [middle of 4 runs]: IC50 (curve of compound)
3.54% [middle of 4 runs]: viability, T/C (compound 10 µM)
inactive: viability, T/C (compound 0.0316 µM) 103% [middle of 4 runs] | viability, T/C (compound 0.316 µM) 31.9% [middle of 4 runs] | viability, T/C (compound 1 µM) 37.1% [middle of 4 runs]
23.7% [middle of 4 runs]: viability, T/C (compound 3.16 µM)
